ChEMBL document CHEMBL4831557, “Parthenolide Derivatives as PKM2 Activators Showing Potential in Colorectal Cancer” (J Med Chem, 2021)
Calls of active or inactive are those of the source. No cut-off for these calls is given here.

Tests used:
[1] = test system: HT-29; assay: Cytotoxicity against human HT-29 cells assessed as reduction in cell viability incubated for 48 hrs by MTT assay; format: functional, cell-based; conditions: HT-29, 48 h
[2] = test system: SW480; assay: Cytotoxicity against human SW480 cells assessed as reduction in cell viability incubated for 48 hrs by MTT assay; format: functional, cell-based; conditions: SW480, 48 h
[3] = test system: HCT-116; assay: Cytotoxicity against human HCT-116 cells assessed as reduction in cell viability incubated for 48 hrs by MTT assay; format: functional, cell-based; conditions: HCT-116, 48 h
[4] = test system: U2OS; assay: Cytotoxicity against human U2OS cells assessed as reduction in cell viability incubated for 48 hrs by MTT assay; format: functional, cell-based
[5] = test system: HepG2; assay: Cytotoxicity against human HepG2 cells assessed as reduction in cell viability incubated for 48 hrs by MTT assay; format: functional, cell-based; conditions: HepG2, 48 h
[6] = test system: MDA-MB-231; assay: Cytotoxicity against human MDA-MB-231 cells assessed as reduction in cell viability incubated for 48 hrs by MTT assay; format: functional, cell-based; conditions: MDA-MB-231, 48 h
[7] = test system: NCM460; assay: Cytotoxicity against human NCM460 cells assessed as reduction in cell viability incubated for 48 hrs by MTT assay; format: cell-based; conditions: NCM460, 48 h
[8] = Selectivity index, ratio of IC50 for human NCM460 cells to IC50 for human HT-29 cells; format: toxicity; conditions: NCM460 cells versus HT-29 cells, read-out: Ratio IC50
[9] = Selectivity index, ratio of IC50 for human NCM460 cells to IC50 for human SW480 cells
[10] = test system: A549; assay: cells; conditions: Homo sapiens, A549, 48 h
[11] = target: Pyruvate kinase PKM (Homo sapiens, UniProt P14618); assay: Activation of recombinant human PKM2 at 10 uM incubated 30 mins by fluorescence microplate reader analysis; conditions: filed as activator
Sequence of Pyruvate kinase PKM (P14618 2-531 limits assumed): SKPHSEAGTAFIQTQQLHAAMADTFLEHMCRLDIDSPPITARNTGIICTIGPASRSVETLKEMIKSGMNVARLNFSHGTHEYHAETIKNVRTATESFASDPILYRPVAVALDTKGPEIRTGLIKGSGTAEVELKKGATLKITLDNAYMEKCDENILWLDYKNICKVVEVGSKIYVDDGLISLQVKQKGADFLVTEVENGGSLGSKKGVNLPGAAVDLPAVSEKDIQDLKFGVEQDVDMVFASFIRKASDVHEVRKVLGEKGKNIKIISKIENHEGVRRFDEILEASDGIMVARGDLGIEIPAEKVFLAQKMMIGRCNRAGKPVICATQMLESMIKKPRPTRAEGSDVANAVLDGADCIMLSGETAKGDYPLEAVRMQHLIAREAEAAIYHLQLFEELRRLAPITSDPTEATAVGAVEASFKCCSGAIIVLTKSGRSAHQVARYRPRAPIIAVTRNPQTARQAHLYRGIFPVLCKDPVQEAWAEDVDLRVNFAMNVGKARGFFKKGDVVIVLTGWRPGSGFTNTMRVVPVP

IC50 [10] [µM]	Activity [11]	SMILES	IC50 [1] [µM]	IC50 [2] [µM]	IC50 [3] [µM]	IC50 [4] [µM]	IC50 [5] [µM]	IC50 [6] [µM]	IC50 [7] [µM]	selectivity ratio [8]	Ratio IC50 [9]
10.3		C=C1C(=O)O[C@@H]2C3O[C@]3(C)CC/C=C(\C)CC[C@@H]12 (some centres undefined)	7.41	3.56	8.12	7	26.1	8.68	2.78	0.38	0.78
3.18	Active	C=C1C(=O)O[C@H]2[C@H]1CC/C(COC(=O)c1ccc3ncccc3c1)=C/CC[C@@]1(C)O[C@@H]21	1.33	0.29	1.6	3.11	6.6	1.99			
8.63		C=C1C(=O)O[C@H]2[C@H]1CC/C(COC(=O)CCn1cnc3ccccc3c1=O)=C/CC[C@@]1(C)O[C@@H]21	5.21	3.23	5.71	7.76	17.9	8.37			
2.95		C=C1C(=O)O[C@H]2[C@H]1CC/C(COC(=O)c1ccc3ccccc3n1)=C/CC[C@@]1(C)O[C@@H]21	2.68	1.2	2.97	2.22	8.84	2.14			
27.3		C/C1=C\CC[C@@]2(C)O[C@H]2[C@H]2OC(=O)C(CN3CCCN(C(=O)c4ccc5ccccc5n4)CC3)[C@@H]2CC1 (some centres undefined)	39	6.39	50	11.1	59.6	71.7			
